{
  "source": "patent US9682931B2",
  "about": "“Aryloyl(oxy or amino)pentafluorosulfanylbenzene compound, pharmaceutically acceptable salt thereof, and prodrugs thereof” (UBE INDUSTRIES, LTD., priority 2013, dated 2017)",
  "format_in_all_cases": "cell-based",
  "key": {"A549 (lung cancer)": {"test_system": "A549 (lung cancer)", "test": "Evaluation of anticancer action, cell proliferation inhibition (WST-8), A549", "details": "Homo sapiens, A549, about 72 hours", "from_the_text": "(§1) The cell proliferation inhibitory effects of a test substance (Compound 3) on various types of cancer cells were examined.\n(§2) 1. Measuring Reagent and Analysis Software\n(§3) WST-8 Kit (Cat. No. 260-96165 or 260-96162; manufactured by Kishida Chemical Co., Ltd.) for counting cell number\n(§4) Software for graph making and measurement of GI50 value: XLfit 5.2 (ID Business Solutions Ltd.)\n(§5) 2. Cells and Culture Conditions\n(§6) Five types of cells and medium (the following Table) were used. The cells were obtained from the Research Resource Bank of the Human Sciences Foundation.\n(§7) On the day when a sample was to be added, the sample was weighed and a medium for each type of cells was added so as to be 500 μg/mL. Sonication was performed while warming at 37° C. for 60 minutes to be dissolved. Then, filtration was performed by a 0.22 m-filter. The 500 μg/mL-solution was diluted with the medium for each type of cells to prepare 200 μg/mL, 60 μg/mL, 20 μg/mL, 6 μg/mL, 2 μg/mL, 0.6 μg/mL and 0.2 μg/mL solutions, which were specified as two-fold concentration test solutions (the final concentrations of the test substance were 250 µg/mL, 100 μg/mL, 30 μg/mL, 10 μg/mL, 3 μg/mL, 1 μg/mL, 0.3 μg/mL, […], respectively). […]\n(§8) (8) Absorbance values at 450 nm and 650 nm were measured to calculate O.D. 450 and O.D. 650. […]\n(§9) ODdrug-exposed wells: absorbance of a well containing a sample […]"}, "[1]": {"test_system": "lumen formed in angiogenesis kit with VEGF-A", "test": "Angiogenesis inhibitory action (angiogenesis kit, VEGF-A, CD31 staining, area and length of lumen)", "details": "5 μg/mL, VEGF-A 10 ng/mL, 11 days", "from_the_text": "Angiogenesis Inhibitory Action\nThe angiogenesis inhibitory action of a test substance (Compound 3) was examined by use of measuring reagents and analysis software described below.\n1. Measuring Reagents and Analysis Software\nAngiogenesis kit (Cat. No. KZ-1000), manufactured by KURABO INDUSTRIES LTD.\nAngiogenic agent VEGF-A (Cat. No. KZ-1350), manufactured by KURABO INDUSTRIES LTD.\nLumen staining kit (for staining CD31, Cat. No. ZHA-1225), manufactured by KURABO INDUSTRIES LTD.\nImage analysis software: Angiogenesis Image Analyzer V2.0, manufactured by KURABO INDUSTRIES LTD.\nHerein, as a culture medium, angiogenesis specific medium-2 (hereinafter referred to as the medium) provided in the above angiogenesis kit.\nPositive control: Medium containing VEGF-A (10 ng/mL)\nNegative control: Medium containing VEGF-A (10 ng/mL) and Suramin (50 μmol/L)\n3. Preparation of Samples\nA test substance was weighed at the starting day of a test. The medium was added so as to be 500 μg/mL. Sonication was performed while heating at 37° C. for 60 minutes to be dissolved. Then, filtration was performed by a 0.22 μm filter. The 500 μg/mL-solution was serially diluted with the medium in a common ratio of 10. […]\nThe pictures were subjected to image analysis by use of image analysis software, Angiogenesis Image Analyzer V 2.0, and the area and length of the lumen formed were measured."}, "[2]": {"test_system": "HL60 (myelocytic leukemia)", "test": "Evaluation of anticancer action, cell proliferation inhibition (WST-8), HL60", "details": "Homo sapiens, HL-60, HL60, about 96 hours", "from_the_text": "as §1, §2, §3, §4, §5, §6, §7, §8, §9"}},
  "data": [
    {"smiles": "O=C(Nc1ccc(S(F)(F)(F)(F)F)cc1)c1cc(O)c(O)c(O)c1", "note": "[Compound 3, 4-(3,4,5-trihydroxybenzoylamino)pentafluorosulfanylbenzene]", "values": [
      {"measurement": "GI50", "setting": "A549 (lung cancer)", "result": 13.3, "unit": "µg/mL"},
      {"measurement": "angiogenesis inhibitory effect (area and length of lumen)", "setting": "[1]", "result": "angiogenesis inhibitory effect was confirmed"},
      {"measurement": "GI50", "setting": "[2]", "result": 1.7, "unit": "µg/mL"}
    ]}
  ]
}
